# Patent US8952024B2, “Herbicidal pyrimidone derivatives” (E I du Pont de Nemours and Company, priority 2009, dated 2015)
# How the values were obtained:
# Test in all cases: Test C plant response
# Assay type in all cases: in vivo
# [1] = system: Russian thistle (Salsola iberica); settings: Preemergence, scale 0 to 100
# [2] = system: bluegrass (annual bluegrass, Poa annua); settings: Preemergence, scale 0 to 100
# [3] = system: Italian ryegrass (Lolium multiflorum); settings: Postemergence, scale 0 to 100
# Description: (§1) Seeds of plant species selected from bluegrass (annual bluegrass, Poa annua), blackgrass (Alopecurus myosuroides), canarygrass (Phalaris minor), chickweed (common chickweed, Stellaria media), galium (catchweed bedstraw, Galium aparine), bromegrass (downy bromegrass, Bromus tectorum), field poppy (Papaver rhoeas), field violet (Viola arvensis), green foxtail (Setaria viridis), deadnettle (henbit deadnettle, Lamium amplexicaule), Italian ryegrass (Lolium multiflorum), kochia (Kochia scoparia), lambsquarters (Chenopodium album), oilseed rape (Brassica napus), pigweed (Amaranthus retroflexus), Russian thistle (Salsola iberica), spring barley (Hordeum vulgare), spring wheat (Triticum aestivum), buckwheat (wild buckwheat, Polygonum convolvulus), wild mustard (Sinapis arvensis), wild oat (Avena fatua), wild radish (Raphanus raphanistrum), windgrass (Apera spica-venti), winter barley (Hordeum vulgare), and winter wheat (Triticum aestivum) were planted and treated postemergence with test chemicals formulated in a non-phytotoxic solvent mixture which included a surfactant. Plants ranged in height from 2 to 18 cm (1- to 4-leaf stage).
# (§2) Treated plants and controls were maintained in a controlled growth environment for 14 days after which time all test plants were visually evaluated and compared to controls. Plant response ratings, summarized in Table C, are based on a scale of 0 to 100 where 0 is no effect and 100 is complete control. A dash (-) response means no test result.
# [4] = system: blackgrass (Alopecurus myosuroides); settings: Postemergence, scale 0 to 100
# Description: as §1, §2
# [5] = system: wild mustard (Sinapis arvensis); settings: Postemergence, scale 0 to 100
# Description: as §1, §2
# [6] = system: galium (catchweed bedstraw, Galium aparine); settings: Postemergence, scale 0 to 100
# Description: as §1, §2
# [7] = system: winter wheat (Triticum aestivum); settings: Postemergence, scale 0 to 100
# Description: as §1, §2
# [8] = system: field violet (Viola arvensis); settings: Postemergence, scale 0 to 100
# Description: as §1, §2
# [9] = system: buckwheat (wild buckwheat, Polygonum convolvulus); settings: Postemergence, scale 0 to 100
# Description: as §1, §2
# [10] = system: winter barley (Hordeum vulgare); settings: Postemergence, scale 0 to 100
# Description: as §1, §2
# [11] = system: bluegrass (annual bluegrass, Poa annua); settings: Postemergence, scale 0 to 100
# Description: as §1, §2
# [12] = system: spring barley (Hordeum vulgare); settings: Postemergence, scale 0 to 100
# Description: as §1, §2
# [13] = system: oilseed rape (Brassica napus); settings: Postemergence, scale 0 to 100
# Description: as §1, §2
# [14] = system: bromegrass (downy bromegrass, Bromus tectorum); settings: Postemergence, scale 0 to 100
# Description: as §1, §2
# [15] = system: Russian thistle (Salsola iberica); settings: Postemergence, scale 0 to 100
# Description: as §1, §2
# [16] = system: lambsquarters (Chenopodium album); settings: Postemergence, scale 0 to 100
# Description: as §1, §2
# [17] = system: pigweed (Amaranthus retroflexus); settings: Postemergence, scale 0 to 100
# Description: as §1, §2
# [18] = system: wild radish (Raphanus raphanistrum); settings: Postemergence, scale 0 to 100
# Description: as §1, §2
# [19] = system: windgrass (Apera spica-venti); settings: Postemergence, scale 0 to 100
# Description: as §1, §2
# [20] = system: spring wheat (Triticum aestivum); settings: Postemergence, scale 0 to 100
# Description: as §1, §2
# kochia (Kochia scoparia) = settings: Postemergence, scale 0 to 100
# Description: as §1, §2
# [21] = system: deadnettle (henbit deadnettle, Lamium amplexicaule); settings: Postemergence, scale 0 to 100
# Description: as §1, §2
# [22] = system: green foxtail (Setaria viridis); settings: Postemergence, scale 0 to 100
# Description: as §1, §2
# wild oat (Avena fatua) = settings: Postemergence, scale 0 to 100
# Description: as §1, §2
compound,measurement,setting,value
"O=C1CCCC(O)=C1C(=O)c1cnc(-c2ccccc2)n(-c2ccccc2)c1=O [Compound 2, 5-[(2-hydroxy-6-oxo-1-cyclohexen-1-yl)carbonyl]-2,3-diphenyl-4(3H)-pyrimidinone]",Plant response rating: Russian Thistle,[1]; 62 g ai/ha,0
same,Plant response rating: Russian Thistle,[1]; 16 g ai/ha,0
same,Plant response rating: Russian Thistle,[1]; 31 g ai/ha,0
same,Plant response rating: Bluegrass,[2]; 62 g ai/ha,0
same,Plant response rating: Bluegrass,[2]; 125 g ai/ha,0
same,Plant response rating: Bluegrass,[2]; 16 g ai/ha,0
same,Plant response rating: Bluegrass,[2]; 31 g ai/ha,0
same,"Plant response rating: Ryegrass, Italian",[3]; 16 g ai/ha,0
same,"Plant response rating: Ryegrass, Italian",[3]; 31 g ai/ha,0
same,"Plant response rating: Ryegrass, Italian",[3]; 62 g ai/ha,15
same,"Plant response rating: Ryegrass, Italian",[3]; 125 g ai/ha,30
same,Plant response rating: Blackgrass,[4]; 16 g ai/ha,0
same,Plant response rating: Blackgrass,[4]; 31 g ai/ha,0
same,Plant response rating: Blackgrass,[4]; 62 g ai/ha,20
same,Plant response rating: Blackgrass,[4]; 125 g ai/ha,30
same,"Plant response rating: Mustard, Wild",[5]; 16 g ai/ha,98
same,"Plant response rating: Mustard, Wild",[5]; 31 g ai/ha,98
same,"Plant response rating: Mustard, Wild",[5]; 62 g ai/ha,98
same,Plant response rating: Galium,[6]; 16 g ai/ha,5
same,Plant response rating: Galium,[6]; 31 g ai/ha,30
same,Plant response rating: Galium,[6]; 62 g ai/ha,50
same,Plant response rating: Galium,[6]; 125 g ai/ha,70
same,"Plant response rating: Wheat, Winter",[7]; 16 g ai/ha,0
same,"Plant response rating: Wheat, Winter",[7]; 31 g ai/ha,0
same,"Plant response rating: Wheat, Winter",[7]; 62 g ai/ha,0
same,"Plant response rating: Wheat, Winter",[7]; 125 g ai/ha,30
same,Plant response rating: Field Violet,[8]; 16 g ai/ha,0
same,Plant response rating: Field Violet,[8]; 31 g ai/ha,40
same,Plant response rating: Field Violet,[8]; 62 g ai/ha,40
same,Plant response rating: Field Violet,[8]; 125 g ai/ha,50
same,"Plant response rating: Buckwheat, Wild",[9]; 16 g ai/ha,15
same,"Plant response rating: Buckwheat, Wild",[9]; 31 g ai/ha,20
same,"Plant response rating: Buckwheat, Wild",[9]; 62 g ai/ha,40
same,"Plant response rating: Buckwheat, Wild",[9]; 125 g ai/ha,70
same,"Plant response rating: Barley, Winter",[10]; 16 g ai/ha,0
same,"Plant response rating: Barley, Winter",[10]; 31 g ai/ha,0
same,"Plant response rating: Barley, Winter",[10]; 62 g ai/ha,10
same,"Plant response rating: Barley, Winter",[10]; 125 g ai/ha,30
same,Plant response rating: Bluegrass,[11]; 16 g ai/ha,0
same,Plant response rating: Bluegrass,[11]; 31 g ai/ha,25
same,Plant response rating: Bluegrass,[11]; 62 g ai/ha,25
same,Plant response rating: Bluegrass,[11]; 125 g ai/ha,65
same,"Plant response rating: Barley, Spring",[12]; 16 g ai/ha,0
same,"Plant response rating: Barley, Spring",[12]; 31 g ai/ha,0
same,"Plant response rating: Barley, Spring",[12]; 62 g ai/ha,0
same,"Plant response rating: Barley, Spring",[12]; 125 g ai/ha,0
same,Plant response rating: Oilseed Rape,[13]; 16 g ai/ha,60
same,Plant response rating: Oilseed Rape,[13]; 31 g ai/ha,60
same,Plant response rating: Oilseed Rape,[13]; 62 g ai/ha,70
same,Plant response rating: Oilseed Rape,[13]; 125 g ai/ha,90
same,"Plant response rating: Bromegrass, Downy",[14]; 16 g ai/ha,10
same,"Plant response rating: Bromegrass, Downy",[14]; 31 g ai/ha,20
same,"Plant response rating: Bromegrass, Downy",[14]; 62 g ai/ha,30
same,"Plant response rating: Bromegrass, Downy",[14]; 125 g ai/ha,50
same,Plant response rating: Russian Thistle,[15]; 16 g ai/ha,35
same,Plant response rating: Russian Thistle,[15]; 31 g ai/ha,60
same,Plant response rating: Russian Thistle,[15]; 62 g ai/ha,70
same,Plant response rating: Russian Thistle,[15]; 125 g ai/ha,95
same,Plant response rating: Lambsquarters,[16]; 16 g ai/ha,70
same,Plant response rating: Lambsquarters,[16]; 31 g ai/ha,75
same,Plant response rating: Lambsquarters,[16]; 62 g ai/ha,80
same,Plant response rating: Lambsquarters,[16]; 125 g ai/ha,98
same,Plant response rating: Pigweed,[17]; 16 g ai/ha,35
same,Plant response rating: Pigweed,[17]; 31 g ai/ha,40
same,Plant response rating: Pigweed,[17]; 62 g ai/ha,75
same,Plant response rating: Pigweed,[17]; 125 g ai/ha,90
same,"Plant response rating: Radish, Wild",[18]; 16 g ai/ha,65
same,"Plant response rating: Radish, Wild",[18]; 31 g ai/ha,80
same,"Plant response rating: Radish, Wild",[18]; 62 g ai/ha,95
same,"Plant response rating: Radish, Wild",[18]; 125 g ai/ha,95
same,Plant response rating: Windgrass,[19]; 16 g ai/ha,5
same,Plant response rating: Windgrass,[19]; 31 g ai/ha,20
same,Plant response rating: Windgrass,[19]; 62 g ai/ha,25
same,Plant response rating: Windgrass,[19]; 125 g ai/ha,40
same,"Plant response rating: Wheat, Spring",[20]; 16 g ai/ha,0
same,"Plant response rating: Wheat, Spring",[20]; 31 g ai/ha,0
same,"Plant response rating: Wheat, Spring",[20]; 62 g ai/ha,0
same,"Plant response rating: Wheat, Spring",[20]; 125 g ai/ha,0
same,Plant response rating: Kochia,kochia (Kochia scoparia); 16 g ai/ha,65
same,Plant response rating: Kochia,kochia (Kochia scoparia); 31 g ai/ha,70
same,Plant response rating: Kochia,kochia (Kochia scoparia); 62 g ai/ha,75
same,Plant response rating: Kochia,kochia (Kochia scoparia); 125 g ai/ha,98
same,Plant response rating: Deadnettle,[21]; 16 g ai/ha,95
same,Plant response rating: Deadnettle,[21]; 31 g ai/ha,95
same,Plant response rating: Deadnettle,[21]; 62 g ai/ha,100
same,Plant response rating: Deadnettle,[21]; 125 g ai/ha,100
same,"Plant response rating: Foxtail, Green",[22]; 16 g ai/ha,65
same,"Plant response rating: Foxtail, Green",[22]; 31 g ai/ha,75
same,"Plant response rating: Foxtail, Green",[22]; 62 g ai/ha,95
same,"Plant response rating: Foxtail, Green",[22]; 125 g ai/ha,95
same,"Plant response rating: Oat, Wild",wild oat (Avena fatua); 16 g ai/ha,0
same,"Plant response rating: Oat, Wild",wild oat (Avena fatua); 31 g ai/ha,15
same,"Plant response rating: Oat, Wild",wild oat (Avena fatua); 62 g ai/ha,25
same,"Plant response rating: Oat, Wild",wild oat (Avena fatua); 125 g ai/ha,25
